# Measured values as given in patent US7872014B2, “Anaplastic lymphoma kinase modulators and methods of use” (Exelixis, Inc., priority 2003, dated 2011).
# Target: T1, ALK (baculovirus expressed human ALK kinase domain F1098-K1410) (Homo sapiens, UniProt Q9UM73)
# T1 construct: baculovirus expressed human ALK kinase domain F1098-K1410; made in house
# Assay: Luciferase-Coupled Chemiluminescent Kinase assay (LCCA), ALK biochemical activity
# Conditions: inhibition of ALK; mean values; 1 μM ATP, 4 μM poly-AEKY, 12 nM ALK, 2 hours ambient temperature
# Summary of the method: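 Luciferase-coupled readout of ATP remaining after reaction of 12 nM ALK kinase domain with 1 μM ATP and 4 μM poly-AEKY, Tris-HCl pH 7.5 buffer with MgCl2 and MnCl2. Incubated 2 h at ambient temperature; inhibition derived from ATP consumption across serial compound dilutions.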
# T1 sequence (Q9UM73 1098-1410): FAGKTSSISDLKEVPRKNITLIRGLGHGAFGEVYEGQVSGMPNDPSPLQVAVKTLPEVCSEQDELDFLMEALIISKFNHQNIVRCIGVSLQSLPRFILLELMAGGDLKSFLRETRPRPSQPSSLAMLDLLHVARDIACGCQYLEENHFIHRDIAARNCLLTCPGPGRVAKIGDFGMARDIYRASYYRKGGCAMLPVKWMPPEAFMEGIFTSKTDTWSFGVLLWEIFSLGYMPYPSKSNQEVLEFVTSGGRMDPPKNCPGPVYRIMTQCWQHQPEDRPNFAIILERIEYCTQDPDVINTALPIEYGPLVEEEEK
row,IC50,SMILES
1,≤ 99 nM,"COCCOc1ccc2c(-c3ccc(O)c(Cl)c3)nc3[nH]nc(C)c3c2c1OCCOC [Example 110, 2-chloro-4-(1-methyl-8,9-bis{[2-(methyloxy)ethyl]oxy}-3H-pyrazolo[3,4-c]isoquinolin-5-yl)phenol]"
2,≤ 99 nM,"Cc1n[nH]c2nc(-c3cc(Cl)c(O)cc3F)c3c(F)c4c(c(F)c3c12)OCCO4 [Example 158, 2-chloro-4-(6,11-difluoro-1-methyl-8,9-dihydro-3H-[1,4]dioxino[2,3-g]pyrazolo[3,4-c]isoquinolin-5-yl)-5-fluorophenol]"
3,≤ 99 nM,"COc1ccc2c(-c3ccc(O)c(Br)c3)nc3[nH]nc(C)c3c2c1OCC1CCN(C(C)=O)CC1 [Example 107, 4-[9-{[(1-acetylpiperidin-4-yl)methyl]oxy}-1-methyl-8-(methyloxy)-3H-pyrazolo[3,4-c]isoquinolin-5-yl]-2-bromophenol]"
4,≤ 99 nM,"Cc1n[nH]c2nc(-c3ccc(O)c(Cl)c3)c3ccc4c(c3c12)OCCO4 [Example 145, 2-chloro-4-(11-methyl-2,3-dihydro-9H-[1,4]dioxino[2,3-f]pyrazolo[3,4-c]isoquinolin-7-yl)phenol]"
5,100 to 999 nM,"Cc1n[nH]c2cc(-c3ccc(O)cc3)c3ccccc3c12 [Example 159, 4-(1-methyl-3H-benzo[e]indazol-5-yl)phenol]"
6,≤ 99 nM,"COc1c(OCCN2CCCN(C)CC2)cc(F)c2c(-c3ccc(O)c(Cl)c3)nc3[nH]nc(C)c3c12 [Example 237, 2-chloro-4-[6-fluoro-1-methyl-8-{[2-(4-methyl-1,4-diazepan-1-yl)ethyl]oxy}-9-(methyloxy)-3H-pyrazolo[3,4-c]isoquinolin-5-yl]phenol]"
7,≤ 99 nM,"COc1c(OCCCN2CCN(C)CC2)cc(F)c2c(-c3ccc(O)c(Cl)c3)nc3[nH]nc(C)c3c12 [Example 201, 2-chloro-4-(6-fluoro-1-methyl-9-(methyloxy)-8-{[3-(4-methylpiperazin-1-yl)propyl]oxy}-3H-pyrazolo[3,4-c]isoquinolin-5-yl)phenol]"
8,100 to 999 nM,"Cc1n[nH]c2nc(-c3ccc4[nH]ccc4c3)c3c(F)cc(O)c(F)c3c12 [Example 191, 6,9-difluoro-5-(1H-indol-5-yl)-1-methyl-3H-pyrazolo[3,4-c]isoquinolin-8-ol]"
9,≤ 99 nM,"COc1c(OCC2CCN(C)CC2)cc(F)c2c(-c3ccc(O)c(Br)c3)nc3[nH]nc(C)c3c12 [Example 183, 2-bromo-4-(6-fluoro-1-methyl-9-(methyloxy)-8-{[(1-methylpiperidin-4-yl)methyl]oxy}-3H-pyrazolo[3,4-c]isoquinolin-5-yl)phenol]"
10,≤ 99 nM,"COc1c(OCC2CCN(C)CC2)cc(F)c2c(-c3ccc(O)c(C)c3)nc3[nH]nc(C)c3c12 [Example 185, 4-(6-fluoro-1-methyl-9-(methyloxy)-8-{[(1-methylpiperidin-4-yl)methyl]oxy}-3H-pyrazolo[3,4-c]isoquinolin-5-yl)-2-methylphenol]"
11,≤ 99 nM,"CCN1CCN(CCOc2cc(F)c3c(-c4ccc(O)c(Cl)c4)nc4[nH]nc(C)c4c3c2F)CC1 [Example 187, 2-chloro-4-(8-{[2-(4-ethylpiperazin-1-yl)ethyl]oxy}-6,9-difluoro-1-methyl-3H-pyrazolo[3,4-c]isoquinolin-5-yl)phenol]"
12,100 to 999 nM,"CCOc1cc2c(cc1OC)c(-c1ccc(O)c(Cl)c1)nc1[nH]nc(C)c12 [Example 128, 2-chloro-4-[8-(ethyloxy)-1-methyl-7-(methyloxy)-3H-pyrazolo[3,4-c]isoquinolin-5-yl]phenol]"
13,≤ 99 nM,"COc1c(OCC2CCN(C)CC2)cc(F)c2c(-c3cc(Cl)c(O)cc3F)nc3[nH]nc(C)c3c12 [Example 184, 2-chloro-5-fluoro-4-(6-fluoro-1-methyl-9-(methyloxy)-8-{[(1-methylpiperidin-4-yl)methyl]oxy}-3H-pyrazolo[3,4-c]isoquinolin-5-yl)phenol]"
14,100 to 999 nM,"Cc1n[nH]c2nc(-c3nnc(N)s3)c3c(F)cc(O)c(F)c3c12 [Example 212, 5-(5-amino-1,3,4-thiadiazol-2-yl)-6,9-difluoro-1-methyl-3H-pyrazolo[3,4-c]isoquinolin-8-ol]"
15,≤ 99 nM,"COc1c(OCCN2CCCCC2)cc(F)c2c(-c3ccc(O)c(Cl)c3)nc3[nH]nc(C)c3c12 [Example 245, 2-chloro-4-{6-fluoro-1-methyl-9-(methyloxy)-8-[(2-piperidin-1-ylethyl)oxy]-3H-pyrazolo[3,4-c]isoquinolin-5-yl}phenol]"

# The next lines start with the molecule.
row,SMILES,IC50
1,"COc1ccc2c(-c3ccc(O)c(Cl)c3)nc3[nH]nc(C)c3c2c1OC [Example 69, 2-chloro-4-[1-methyl-8,9-bis(methyloxy)-3H-pyrazolo[3,4-c]isoquinolin-5-yl]phenol]",≤ 99 nM
2,"COc1cc2c(-c3ccc(O)c(Br)c3)nc3[nH]nc(C)c3c2cc1OC [Example 44, 2-bromo-4-[1-methyl-7,8-bis(methyloxy)-3H-pyrazolo[3,4-c]isoquinolin-5-yl]phenol]",≤ 99 nM
3,"COc1cc2c(-c3ccc(O)cc3)nc3[nH]nc(CNCc4ccccc4)c3c2cc1OC [Example 82, 4-(7,8-bis(methyloxy)-1-{[(phenylmethyl)amino]methyl}-3H-pyrazolo[3,4-c]isoquinolin-5-yl)phenol]",100 to 999 nM
4,"COc1cc2c(-c3ccc(O)cc3)nc3[nH]nc(C)c3c2cc1OCC1CCN(C)CC1 [Example 65, 4-(1-methyl-7-(methyloxy)-8-{[(1-methylpiperidin-4-yl)methyl]oxy}-3H-pyrazolo[3,4-c]isoquinolin-5-yl)phenol]",≤ 99 nM
5,"COc1ccc2c(-c3ccc(O)c(F)c3)nc3[nH]nc(C)c3c2c1OC [Example 70, 2-fluoro-4-[1-methyl-8,9-bis(methyloxy)-3H-pyrazolo[3,4-c]isoquinolin-5-yl]phenol]",≤ 99 nM
6,"Cc1n[nH]c2nc(-c3ccc(O)cc3)c3ccccc3c12 [Example 98, 4-(1-methyl-3H-pyrazolo[3,4-c]isoquinolin-5-yl)phenol]",≤ 99 nM
7,"COc1ccc2c(-c3ccc(O)c(Cl)c3)nc3[nH]nc(C)c3c2c1OCCN1CCOCC1 [Example 81, 2-chloro-4-{1-methyl-8-(methyloxy)-9-[(2-morpholin-4-ylethyl)oxy]-3H-pyrazolo[3,4-c]isoquinolin-5-yl}phenol]",100 to 999 nM
8,"COCCOc1c(OC)ccc2c(-c3ccc(O)cc3)nc3[nH]nc(C)c3c12 [Example 90, 4-(1-methyl-8-(methyloxy)-9-{[2-(methyloxy)ethyl]oxy}-3H-pyrazolo[3,4-c]isoquinolin-5-yl)phenol]",≤ 99 nM
9,"COc1ccc2c(-c3ccc(O)c(Cl)c3)nc3[nH]nc(C)c3c2c1OCC1CCN(C)CC1 [Example 91, 2-chloro-4-(1-methyl-8-(methyloxy)-9-{[(1-methylpiperidin-4-yl)methyl]oxy}-3H-pyrazolo[3,4-c]isoquinolin-5-yl)phenol]",≤ 99 nM
10,"COc1cc2c(-c3ccc(O)cc3)nc3[nH]nc(C)c3c2cc1OCC1CCNCC1 [Example 54, 4-{1-methyl-7-(methyloxy)-8-[(piperidin-4-ylmethyl)oxy]-3H-pyrazolo[3,4-c]isoquinolin-5-yl}phenol]",≤ 99 nM
11,"COc1ccc2c(-c3ccc(O)c(Br)c3)nc3[nH]nc(C)c3c2c1OC [Example 72, 2-bromo-4-[1-methyl-8,9-bis(methyloxy)-3H-pyrazolo[3,4-c]isoquinolin-5-yl]phenol]",≤ 99 nM
